Columns and labels:
[1] = system: children diagnosed with Autism; details: secretin given as diagnostic procedure during upper gastrointestinal endoscopy; Horvath et al. 1998; cited from earlier work
autistic children [2] = test: CARS (Childhood Autism Rating Scale) test pre- and post-secretin administration (Experiment 1); format: in vivo, human; details: 16 autistic children; 3 weeks post infusion vs pre-secretin
Description: Upon determining that a given child was likely to benefit from secretin administration based on the results of the fecal chymotrypsin test, the child was administered a CARS (Childhood Autism Rating Scale) test prior to being scheduled for secretin infusion.
For each of the 16 autistic children tested, a preferred secretin infusion process according to the present invention was performed involving the administering of 1 U/kg of body weight of Secretin-Ferring for a period of nine months at intervals of approximately 6 weeks. In addition, another CARS test was administered to each of the 16 autistic children 3 weeks post secretin administration to determine if their autism had changed post infusion.
A preferred secretin infusion process includes the initial step of prepping an arm of the candidate child with an IV injection of saline. A test dose of 1 U of Secretin-Ferring is then administered to the child. Approximately one minute after, infusion, the child is examined for signs of allergic reaction including rash, increased heart rate, and increase of blood pressure. […] Subsequently, each child receives a 1 U/kg of body weight infusion of Secretin-Ferring approximately every 6 weeks for 9 months. It is to be understood that any commercially available form of secretin may be used. […]

autistic children [3] = test: Fecal Chymotrypsin Test after secretin infusion in autistic children (Experiments 1 and 2); format: in vivo, human; details: 6 Months Post-Secretin Administration
Description: In this experiment, 16 children diagnosed as having autism were administered the following Fecal Chymotrypsin Test in accordance with an embodiment of the invention. First, approximately 2 grams of stool were collected from each child and placed in a sterile container (although it is to be understood that any quantity of stool may be collected, as 2 grams of stool is not a required amount). Each stool sample was then analyzed using, e.g., an enzymatic photospectrometry analysis as is known by those skilled in the art, to determine the level of fecal chymotrypsin in the stool. Although the enzymatic photospectrophotometry process is preferred, any suitable conventional method may be used for measuring the fecal chymotrypsin levels. The measured chymotrypsin levels of the 16 autistic children are illustrated in FIG. 13.
After determining the chymotrypsin levels of the stools, each of these levels were compared with threshold chymotrypsin levels to determine if the child was likely to benefit from secretin administration. By way of example, with the fecal chymotrypsin tests of the stool samples being performed at 30° C., normal levels of chymotrypsin are deemed to lie above 8.4 U/gram, whereas pathologically abnormal levels are deemed to lie below 4.2 U/gram. In addition, chymotrypsin levels between 8.4 U/gram and 4.2 U/gram are considered equivocal, and further testing of the individual's fecal chymotrypsin levels over a period of time should be performed. […]
The results of Experiment 1 are illustrated in FIGS. 1-14. For instance, approximately one week after the first secretin infusion, the fecal chymotrypsin level of each of the 16 autistic children was measured again. […]
In this experiment, 37 autistic children with abnormal fecal chymotrypsin levels were administered secretin over the course of 6 months using the secretin infusion process described above. Their fecal chymotrypsin (FC) levels were measured weekly using the fecal chymotrypsin test described above.

[4] = of 37 children (pre-secretin 0)

secretin
effect on symptoms associated with Autism [1]: ameliorating the symptoms associated with Autism
CARS component scores (autistic children [2]): demonstrated improvement except for the fear component which increased
# Autistic Children w/Equivocal FC levels (autistic children [3]; [4]): 2
# Autistic Children w/normal FC levels (autistic children [3]; [4]): 34
# Autistic Children w/Abnormal FC levels (autistic children [3]; of 37 children (pre-secretin 37)): 1
